Source: US20030211072A1, “Compositions with enhanced oral bioavailability” (priority 2000, published 2003)
“And” between values parts separate entries of the source, which are not always exact repeats. Equal entries are not always repeated.

Tests used:
rat everted gut sacs [1] = conditions: male, Wistar
rat everted gut sacs [2] = test: Gut sac viability (active glucose transport)
rat everted gut sacs [3] = test: Everted rat intestinal sacs: tissue uptake and serosal transfer of [3H]vinblastine, alone or with verapamil/enhancer
[4] = In vivo biodistribution of [3H]vinblastine (100 ng/kg) after oral gavage, alone or co-administered with ascophyllum, xanthan gum or polidocanol; conditions: for AUC Control of [3H]Vinblastine: 100 ng/kg alone
rat everted gut sacs [5] = test: Everted rat intestinal sacs: tissue uptake and serosal transfer of [14C]doxorubicin, alone or with verapamil/enhancer
[6] = [3H]vinblastine 1 ng/ml alone (Control), 90 min
[7] = [3H]vinblastine 1 ng/ml, verapamil 0 ng/ml, 60 min
[8] = [3H]vinblastine (−) verapamil, 0 min
[9] = [3H]vinblastine (−) verapamil, 30 min
[10] = [3H]vinblastine (−) verapamil, 60 min
[11] = [3H]vinblastine (−) verapamil, 90 min
[12] = [3H]vinblastine (−) verapamil, 120 min
[13] = [3H]vinblastine alone 0.1 μg/ml, 60 min
[14] = [3H]vinblastine alone 0.3 μg/ml, 60 min
[15] = [3H]vinblastine alone 0.7 μg/ml, 60 min
[16] = [3H]vinblastine alone 1.0 μg/ml, 60 min
[17] = 5 min-24 h, vinblastine 100 ng/kg alone (control)
[18] = [3H]vinblastine 100 ng/kg alone, after 5 hours
[19] = [3H]vinblastine 100 ng/kg alone, after 24 hours
[20] = [14C]doxorubicin 1 ng/ml alone (Control), 90 min
[21] = [14C]doxorubicin 1 ng/ml, verapamil 0 ng/ml, 60 min
[22] = [14C]doxorubicin 10 ng/ml alone (Control), 90 min
[23] = [14C]doxorubicin 100 ng/ml alone (Control), 90 min
[24] = [14C]doxorubicin (−) verapamil, 0 min
[25] = [14C]doxorubicin (−) verapamil, 30 min
[26] = [14C]doxorubicin (−) verapamil, 60 min
[27] = [14C]doxorubicin (−) verapamil, 90 min
[28] = [14C]doxorubicin (−) verapamil, 120 min
[29] = [14C]doxorubicin alone 1 ng/ml, 60 min
[30] = [14C]doxorubicin alone 3 ng/ml, 60 min
[31] = [14C]doxorubicin alone 10 ng/ml, 60 min
[32] = [14C]doxorubicin alone 100 ng/ml, 60 min
[33] = [14C]doxorubicin alone 300 ng/ml, 60 min

COc1ccc(CCN(C)CCCC(C#N)(c2ccc(OC)c(OC)c2)C(C)C)cc1OC (stereo not shown) [Verapamil, verapamil]
effect on tissue uptake and serosal transfer of [14C]doxorubicin (rat everted gut sacs [1]): significantly (p<0.05, unpaired student T-test) increased | increase of [14C]doxorubicin uptake and accumulation into the tissue (rat everted gut sacs [1]): 2 fold | tissue viability (glucose actively transported) (rat everted gut sacs [2]; verapamil, exception: 40 μg/ml combined with 1 ng/ml [3H]vinblastine): good tissue viability

CC[C@]1(O)C[C@@H]2CN(CCc3c([nH]c4ccccc34)[C@@](C(=O)OC)(c3cc4c(cc3OC)N(C)[C@H]3[C@@](O)(C(=O)OC)[C@H](OC(C)=O)[C@]5(CC)C=CCN6CC[C@]43[C@@H]65)C2)C1 [[^3H]Vinblastine, vinblastine]
Serosal transfer (rat everted gut sacs [3]; [6]): 0.006 ng/mg of protein | Tissue uptake (rat everted gut sacs [3]; [6]): 0.061 + ng/mg of protein and 0.061 ng/mg of protein | Total uptake (rat everted gut sacs [3]; [6]): 0.067 ng/mg of protein | Serosal transfer (rat everted gut sacs [3]; [7]): 0.002 ± 0.000 ng/mg of protein | Tissue uptake (rat everted gut sacs [3]; [7]): 0.032 ± 0.005 ng/mg of protein | Serosal transfer (rat everted gut sacs [3]; [8]): 0.000 ng/mg of protein | Tissue uptake (rat everted gut sacs [3]; [8]): 0.001 ng/mg of protein | Total uptake (rat everted gut sacs [3]; [8]): 0.001 ng/mg of protein | Serosal transfer (rat everted gut sacs [3]; [9]): 0.002 ng/mg of protein | Tissue uptake (rat everted gut sacs [3]; [9]): 0.005 ng/mg of protein | Total uptake (rat everted gut sacs [3]; [9]): 0.007 ng/mg of protein | Serosal transfer (rat everted gut sacs [3]; [10]): 0.003 ng/mg of protein | Tissue uptake (rat everted gut sacs [3]; [10]): 0.032 ng/mg of protein | Total uptake (rat everted gut sacs [3]; [10]): 0.035 ng/mg of protein | Serosal transfer (rat everted gut sacs [3]; [11]): 0.006 ng/mg of protein | Tissue uptake (rat everted gut sacs [3]; [11]): 0.049 ng/mg of protein | Total uptake (rat everted gut sacs [3]; [11]): 0.055 ng/mg of protein | Serosal transfer (rat everted gut sacs [3]; [12]): 0.008 ng/mg of protein | Tissue uptake (rat everted gut sacs [3]; [12]): 0.050 ng/mg of protein | Total uptake (rat everted gut sacs [3]; [12]): 0.058 ng/mg of protein | Serosal transfer (rat everted gut sacs [3]; [13]): 0.000 ± 0.000 ng/mg of protein | Tissue uptake (rat everted gut sacs [3]; [13]): 0.009 ± 0.000 ng/mg of protein | Serosal transfer (rat everted gut sacs [3]; [14]): 0.001 ± 0.000 ng/mg of protein | Tissue uptake (rat everted gut sacs [3]; [14]): 0.011 ± 0.001 ng/mg of protein | Serosal transfer (rat everted gut sacs [3]; [15]): 0.002 ± 0.001 ng/mg of protein | Tissue uptake (rat everted gut sacs [3]; [15]): 0.017 ± 0.001 ng/mg of protein | Serosal transfer (rat everted gut sacs [3]; [16]): 0.003 ± 0.001 ng/mg of protein | Tissue uptake (rat everted gut sacs [3]; [16]): 0.029 ± 0.007 ng/mg of protein | AUC Control of [^3H]Vinblastine, Blood [4, 17]: 53.47 % Dose/organ weight | AUC Control of [^3H]Vinblastine, Cecum [4, 17]: 20.20 % Dose/organ weight | AUC Control of [^3H]Vinblastine, Faeces [4, 17]: 4.58 % Dose/organ weight | AUC Control of [^3H]Vinblastine, Heart [4, 17]: 1.80 % Dose/organ weight | AUC Control of [^3H]Vinblastine, Kidney [4, 17]: 0.98 % Dose/organ weight | AUC Control of [^3H]Vinblastine, Large Intestinal Wash [4, 17]: 6.46 % Dose/organ weight | AUC Control of [^3H]Vinblastine, Large Intestine [4, 17]: 1.08 % Dose/organ weight | AUC Control of [^3H]Vinblastine, Liver [4, 17]: 4.36 % Dose/organ weight | AUC Control of [^3H]Vinblastine, Lung [4, 17]: 1.54 % Dose/organ weight | AUC Control of [^3H]Vinblastine, Small Intestinal Wash [4, 17]: 36.66 % Dose/organ weight | AUC Control of [^3H]Vinblastine, Small Intestine [4, 17]: 1.69 % Dose/organ weight | AUC Control of [^3H]Vinblastine, Spleen [4, 17]: 2.78 % Dose/organ weight | AUC Control of [^3H]Vinblastine, Stomach [4, 17]: 5.34 % Dose/organ weight | AUC Control of [^3H]Vinblastine, Urine [4, 17]: 1.79 % Dose/organ weight | AUC Control of [3H]Vinblastine ([4]; Blood, 5 min-24 h): 53.47 % Dose/organ weight | AUC Control of [3H]Vinblastine ([4]; Cecum, 5 min-24 h): 20.20 % Dose/organ weight | AUC Control of [3H]Vinblastine ([4]; Faeces, 5 min-24 h): 4.58 % Dose/organ weight | AUC Control of [3H]Vinblastine ([4]; Heart, 5 min-24 h): 1.80 % Dose/organ weight | AUC Control of [3H]Vinblastine ([4]; Kidney, 5 min-24 h): 0.98 % Dose/organ weight | AUC Control of [3H]Vinblastine ([4]; Large Intestinal Wash, 5 min-24 h): 6.46 % Dose/organ weight | AUC Control of [3H]Vinblastine ([4]; Large Intestine, 5 min-24 h): 1.08 % Dose/organ weight | AUC Control of [3H]Vinblastine ([4]; Liver, 5 min-24 h): 4.36 % Dose/organ weight | AUC Control of [3H]Vinblastine ([4]; Lung, 5 min-24 h): 1.54 % Dose/organ weight | AUC Control of [3H]Vinblastine ([4]; Small Intestinal Wash, 5 min-24 h): 36.66 % Dose/organ weight | AUC Control of [3H]Vinblastine ([4]; Small Intestine, 5 min-24 h): 1.69 % Dose/organ weight | AUC Control of [3H]Vinblastine ([4]; Spleen, 5 min-24 h): 2.78 % Dose/organ weight | AUC Control of [3H]Vinblastine ([4]; Stomach, 5 min-24 h): 5.34 % Dose/organ weight | AUC Control of [3H]Vinblastine ([4]; Urine, 5 min-24 h): 1.79 % Dose/organ weight | levels in blood over the time course ([4]; [3H]vinblastine 100 ng/kg alone, 5 min-24 h): remained constant | % of the dose in the stomach ([4]; [3H]vinblastine 100 ng/kg alone, after 1 hour): 1.2-1.6% | % found in the cecum [4, 18]: 1.7±0.3% | % found in the faeces [4, 18]: 0.33±0.03% | % in the blood [4, 19]: 3% | % in the heart [4, 19]: 0.7% | tissue viability (glucose actively transported) (rat everted gut sacs [2]; [3H]vinblastine, exception: concentrations higher than 1 ng/ml): good tissue viability

COc1cccc2c1C(=O)c1c(O)c3c(c(O)c1C2=O)C[C@@](O)(C(=O)CO)C[C@@H]3O[C@H]1C[C@H](N)[C@H](O)[C@H](C)O1 [[^14C]Doxorubicin, doxorubicin]
Serosal transfer (rat everted gut sacs [5]; [20]): 0.03 ± 0.00 ng/mg of protein | Tissue uptake (rat everted gut sacs [5]; [20]): 0.02 ± 0.00 ng/mg of protein | Total uptake (rat everted gut sacs [5]; [20]): 0.05 ± 0.01 ng/mg of protein | Serosal transfer (rat everted gut sacs [5]; [21]): 0.010 ± 0.000 ng/mg of protein | Tissue uptake (rat everted gut sacs [5]; [21]): 0.006 ± 0.000 ng/mg of protein | Serosal transfer (rat everted gut sacs [5]; [22]): 0.05 ± 0.00 ng/mg of protein | Tissue uptake (rat everted gut sacs [5]; [22]): 0.19 ± 0.03 ng/mg of protein | Total uptake (rat everted gut sacs [5]; [22]): 0.24 ± 0.03 ng/mg of protein | Serosal transfer (rat everted gut sacs [5]; [23]): 0.05 ± 0.07 ng/mg of protein | Tissue uptake (rat everted gut sacs [5]; [23]): 0.75 ± 0.13 ng/mg of protein | Total uptake (rat everted gut sacs [5]; [23]): 1.25 ± 0.07 ng/mg of protein | Serosal transfer (rat everted gut sacs [5]; [24]): 0.000 ng/mg of protein | Tissue uptake (rat everted gut sacs [5]; [24]): 0.001 ng/mg of protein | Total uptake (rat everted gut sacs [5]; [24]): 0.001 ng/mg of protein | Serosal transfer (rat everted gut sacs [5]; [25]): 0.008 ng/mg of protein | Tissue uptake (rat everted gut sacs [5]; [25]): 0.005 ng/mg of protein | Total uptake (rat everted gut sacs [5]; [25]): 0.013 ng/mg of protein | Serosal transfer (rat everted gut sacs [5]; [26]): 0.017 ng/mg of protein | Tissue uptake (rat everted gut sacs [5]; [26]): 0.007 ng/mg of protein | Total uptake (rat everted gut sacs [5]; [26]): 0.024 ng/mg of protein | Serosal transfer (rat everted gut sacs [5]; [27]): 0.027 ng/mg of protein | Tissue uptake (rat everted gut sacs [5]; [27]): 0.025 ng/mg of protein | Total uptake (rat everted gut sacs [5]; [27]): 0.052 ng/mg of protein | Serosal transfer (rat everted gut sacs [5]; [28]): 0.024 ng/mg of protein | Tissue uptake (rat everted gut sacs [5]; [28]): 0.030 ng/mg of protein | Total uptake (rat everted gut sacs [5]; [28]): 0.054 ng/mg of protein | Serosal transfer (rat everted gut sacs [5]; [29]): 0.0017 ± 0.002 ng/mg of protein | Tissue uptake (rat everted gut sacs [5]; [29]): 0.007 ± 0.005 ng/mg of protein | Serosal transfer (rat everted gut sacs [5]; [30]): 0.029 ± 0.005 ng/mg of protein | Tissue uptake (rat everted gut sacs [5]; [30]): 0.082 ± 0.015 ng/mg of protein | Serosal transfer (rat everted gut sacs [5]; [31]): 0.193 ± 0.028 ng/mg of protein | Tissue uptake (rat everted gut sacs [5]; [31]): 0.393 ± 0.078 ng/mg of protein | Serosal transfer (rat everted gut sacs [5]; [32]): 1.131 ± 0.500 ng/mg of protein | Tissue uptake (rat everted gut sacs [5]; [32]): 5.598 ± 1.280 ng/mg of protein | Serosal transfer (rat everted gut sacs [5]; [33]): 3.375 ± 0.900 ng/mg of protein | Tissue uptake (rat everted gut sacs [5]; [33]): 25.734 ± 3.668 ng/mg of protein | serosal transfer time course (rat everted gut sacs [5]; [14C]doxorubicin, levels plateaued after 90 min): only linear for 90 min
